From ChEMBL document CHEMBL1201862, “PubChem BioAssay data set” (2004)
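Briefly, cells in 96-well plates were exposed to five compound concentrations for 48 h, and endpoints were estimated by linear interpolation. Here, GI50 denotes the concentration required for 50% inhibition of growth.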 The source made the active and inactive calls. Cut-off read from the data, not from the text of the source: active = GI50 up to about 1.1 µM and inactive = higher.

Key:
Test in all cases: DTP human tumour cell line panel, 48 h
ACHN = tested on: ACHN
BT-549 = tested on: BT-549
CCRF-CEM = tested on: CCRF-CEM
HCC 2998 = tested on: HCC 2998
IGROV-1 = tested on: IGROV-1
KM12 = tested on: KM12
LOX IMVI = tested on: LOX IMVI
M14 = tested on: M14
MCF7 = tested on: MCF7
MDA-MB-435 = tested on: MDA-MB-435
MDA-N = tested on: MDA-N
Malme-3M = tested on: Malme-3M
NCI-H460 = tested on: NCI-H460
NCI-H522 = tested on: NCI-H522
NCI/ADR-RES = tested on: NCI/ADR-RES
OVCAR-8 = tested on: OVCAR-8
PC-3 = tested on: PC-3
RXF 393 = tested on: RXF 393
UACC-257 = tested on: UACC-257
UACC-62 = tested on: UACC-62

| Structure (SMILES) | GI50 (ACHN) | GI50 (BT-549) | GI50 (CCRF-CEM) | GI50 (HCC 2998) | GI50 (IGROV-1) | GI50 (KM12) | GI50 (LOX IMVI) | GI50 (M14) | GI50 (MCF7) | GI50 (MDA-MB-435) | GI50 (MDA-N) | GI50 (Malme-3M) | GI50 (NCI-H460) | GI50 (NCI-H522) | GI50 (NCI/ADR-RES) | GI50 (OVCAR-8) | GI50 (PC-3) | GI50 (RXF 393) | GI50 (UACC-257) | GI50 (UACC-62) |
| --- | --- | --- | --- | --- | --- | --- | --- | --- | --- | --- | --- | --- | --- | --- | --- | --- | --- | --- | --- | --- |
| COc1cccc2c1CCc1cc3c(N)nc(N)nc3nc1-2 | 5.75 µM (inactive) | 26.4 µM (inactive) | 2.55 µM (inactive) | 2.29 µM (inactive) | 5.86 µM (inactive) | 5.47 µM (inactive) | 0.34 µM (active) | 4.22 µM (inactive) | 6.31 µM (inactive) | 5.3 µM (inactive) | 2.94 µM (inactive) | 5.14 µM (inactive) | 4.83 µM (inactive) | 5.18 µM (inactive) | 16.7 µM (inactive) | 3.31 µM (inactive) | 5.38 µM (inactive) | 3.02 µM (inactive) | 5.73 µM (inactive) | 7.23 µM (inactive) |
| Cc1cc2nc3c(C)c4ccccc4c(C)n3c2cc1C | 1.67 µM (inactive) | 6.07 µM (inactive) | 3.84 µM (inactive) | 3.33 µM (inactive) | 2.05 µM (inactive) | 3.34 µM (inactive) | 0.857 µM (active) | 2.61 µM (inactive) | 1.49 µM (inactive) | 3.02 µM (inactive) | 1.89 µM (inactive) | 1.98 µM (inactive) | 1.79 µM (inactive) | 2.51 µM (inactive) | 1.51 µM (inactive) | 1.73 µM (inactive) | 2.96 µM (inactive) | 2.84 µM (inactive) | 3.36 µM (inactive) | 4.14 µM (inactive) |
| Cn1cc(-c2cnc(-c3cn(C)c4ccccc34)cn2)c2ccccc21 | 5.83 µM (inactive) | 14.1 µM (inactive) | 0.448 µM (active) | 5.61 µM (inactive) | 3.8 µM (inactive) | 0.0471 µM (active) | 5.2 µM (inactive) | 3.47 µM (inactive) | 0.194 µM (active) | 0.811 µM (active) | 0.767 µM (active) | 5.11 µM (inactive) | 4.51 µM (inactive) | 1.51 µM (inactive) | 2.96 µM (inactive) | 4.89 µM (inactive) | 3.73 µM (inactive) | 3.25 µM (inactive) | 16 µM (inactive) | 2.86 µM (inactive) |
| Cc1cc(NC[C@H](O)[C@H](O)[C@H](O)CO)c(Sc2cc(=O)[nH]c(=O)[nH]2)cc1C | > 62.5 µM (inactive) | > 62.5 µM (inactive) | > 62.5 µM (inactive) | > 62.5 µM (inactive) | > 62.5 µM (inactive) | > 62.5 µM (inactive) | > 62.5 µM (inactive) | > 62.5 µM (inactive) | > 62.5 µM (inactive) | > 62.5 µM (inactive) | > 62.5 µM (inactive) | > 62.5 µM (inactive) | > 62.5 µM (inactive) | > 62.5 µM (inactive) | > 62.5 µM (inactive) | > 62.5 µM (inactive) | > 62.5 µM (inactive) | > 62.5 µM (inactive) | > 62.5 µM (inactive) | > 62.5 µM (inactive) |
| CCO/N=C(/CC)c1ccc(Br)s1 | > 100 µM (inactive) | > 100 µM (inactive) | > 100 µM (inactive) | > 100 µM (inactive) | > 100 µM (inactive) | > 100 µM (inactive) | 80.5 µM (inactive) | > 100 µM (inactive) | > 100 µM (inactive) | > 100 µM (inactive) | > 100 µM (inactive) | > 100 µM (inactive) | > 100 µM (inactive) | > 100 µM (inactive) | > 100 µM (inactive) | > 100 µM (inactive) | > 100 µM (inactive) | > 100 µM (inactive) | > 100 µM (inactive) | > 100 µM (inactive) |
| CCCNC(C#N)c1ccc(OCCCCCCCCCCOc2ccc(C(C#N)NCCC)cc2)cc1 (stereo not given) | 83.9 µM (inactive) | 75 µM (inactive) | 15.3 µM (inactive) | > 100 µM (inactive) | 54.6 µM (inactive) | 64.7 µM (inactive) | 14.8 µM (inactive) | 40.4 µM (inactive) | 35.2 µM (inactive) | 46.3 µM (inactive) | 29.4 µM (inactive) | 64 µM (inactive) | 50.5 µM (inactive) | 72.6 µM (inactive) | 56.8 µM (inactive) | 30.9 µM (inactive) | 30.8 µM (inactive) | 23.9 µM (inactive) | 48.5 µM (inactive) | 61.2 µM (inactive) |
| CCOc1cc2c(cc1O)C(O)C[C@@H]1[C@@H]2CC[C@]2(C)[C@@H](O)CC[C@@H]12 (stereo not given in full) | 0.553 µM (active) | 39.1 µM (inactive) | 0.298 µM (active) | 3.03 µM (inactive) | 0.431 µM (active) | 3.24 µM (inactive) | 0.299 µM (active) | 0.575 µM (active) | 0.268 µM (active) | 0.033 µM (active) | 0.0459 µM (active) | 0.307 µM (active) | 0.265 µM (active) | 0.129 µM (active) | 0.279 µM (active) | 0.885 µM (active) | 3.44 µM (inactive) | 1.44 µM (inactive) | 0.444 µM (active) | 0.284 µM (active) |
| CSc1c(C#N)c(N)n2c1C(=O)N(c1ccccc1)C2=S | 48.2 µM (inactive) | > 100 µM (inactive) | 68.2 µM (inactive) | > 100 µM (inactive) | 41.7 µM (inactive) | 51.5 µM (inactive) | 72.1 µM (inactive) | > 100 µM (inactive) | > 100 µM (inactive) | > 100 µM (inactive) | > 100 µM (inactive) | 90.4 µM (inactive) | > 100 µM (inactive) | 21.2 µM (inactive) | 80.5 µM (inactive) | 92.9 µM (inactive) | 61.7 µM (inactive) | > 100 µM (inactive) | > 100 µM (inactive) | > 100 µM (inactive) |
| CC(C)(C)OC(=O)N(O)[C@@H]1C=C[C@H](n2cnc3c(N)ncnc32)C1 | > 100 µM (inactive) | > 100 µM (inactive) | > 100 µM (inactive) | > 100 µM (inactive) | 59 µM (inactive) | > 100 µM (inactive) | > 100 µM (inactive) | > 100 µM (inactive) | > 100 µM (inactive) | > 100 µM (inactive) | > 100 µM (inactive) | > 100 µM (inactive) | > 100 µM (inactive) | > 100 µM (inactive) | > 100 µM (inactive) | > 100 µM (inactive) | > 100 µM (inactive) | > 100 µM (inactive) | > 100 µM (inactive) | > 100 µM (inactive) |
| COC(=O)C(C)(Cc1ccc2c(c1)nnn2C(C)=O)NC(C)=O (stereo not given) | > 100 µM (inactive) | > 100 µM (inactive) | > 100 µM (inactive) | > 100 µM (inactive) | > 100 µM (inactive) | > 100 µM (inactive) | > 100 µM (inactive) | > 100 µM (inactive) | > 100 µM (inactive) | > 100 µM (inactive) | > 100 µM (inactive) | > 100 µM (inactive) | > 100 µM (inactive) | > 100 µM (inactive) | > 100 µM (inactive) | > 100 µM (inactive) | > 100 µM (inactive) | > 100 µM (inactive) | > 100 µM (inactive) | > 100 µM (inactive) |
| CC1(C)C(=O)/C=C\C(=O)C(C)(C)C2=CC=C(O2)C(C)(C)C(=O)C(Br)C(Br)C(=O)C(C)(C)C2=CC=C1O2 (stereo not given) | > 46.5 µM (inactive) | 21.7 µM (inactive) | 1.93 µM (inactive) | > 100 µM (inactive) | > 52.6 µM (inactive) | 71.8 µM (inactive) | 23 µM (inactive) | 58.7 µM (inactive) | 33.6 µM (inactive) | 34.4 µM (inactive) | > 45 µM (inactive) | 49.9 µM (inactive) | > 100 µM (inactive) | 21.8 µM (inactive) | 23.2 µM (inactive) | 12 µM (inactive) | > 100 µM (inactive) | 31.3 µM (inactive) | 83.8 µM (inactive) | 24 µM (inactive) |
| CC1(C)N/C(=C\[N+](=O)[O-])C(C)(C)N1O | > 10 µM (inactive) | > 10 µM (inactive) | > 10 µM (inactive) | > 10 µM (inactive) | > 10 µM (inactive) | > 10 µM (inactive) | > 10 µM (inactive) | > 10 µM (inactive) | > 10 µM (inactive) | > 10 µM (inactive) | > 10 µM (inactive) | > 10 µM (inactive) | > 10 µM (inactive) | > 10 µM (inactive) | > 10 µM (inactive) | > 10 µM (inactive) | > 10 µM (inactive) | > 10 µM (inactive) | > 10 µM (inactive) | > 10 µM (inactive) |
| Oc1ncc(N(CCCl)CCCl)c(O)n1 [URACIL MUSTARD] | 2.67 µM (inactive) | 38.5 µM (inactive) | 2.1 µM (inactive) | 62.7 µM (inactive) | 81.3 µM (inactive) | 89.3 µM (inactive) | 14.1 µM (inactive) | 20.7 µM (inactive) | 14.6 µM (inactive) | 64 µM (inactive) | 60.4 µM (inactive) | 32.8 µM (inactive) | 3.48 µM (inactive) | 14.3 µM (inactive) | 23.7 µM (inactive) | 42.2 µM (inactive) | 57.3 µM (inactive) | 20.7 µM (inactive) | 51.1 µM (inactive) | 6.7 µM (inactive) |
| [C-]#[N+]C(=C\c1ccc(O)cc1)/C(=C/c1ccc(O)cc1)[N+]#[C-] [XANTOCILLIN] | 2.03 µM (inactive) | 2.41 µM (inactive) | 0.76 µM (active) | 3.49 µM (inactive) | 2.13 µM (inactive) | 2.16 µM (inactive) | 1.64 µM (inactive) | 2.28 µM (inactive) | 1.55 µM (inactive) | 1.28 µM (inactive) | 1.47 µM (inactive) | 0.871 µM (active) | 2.42 µM (inactive) | 3.14 µM (inactive) | 2.44 µM (inactive) | 1.28 µM (inactive) | 3.65 µM (inactive) | 1.85 µM (inactive) | 2.53 µM (inactive) | 1.84 µM (inactive) |
